Experimental data published in paper PMC11222147, “Host defence peptide plectasin targets bacterial cell wall precursor lipid II by a calcium-sensitive supramolecular mechanism” (Nature Microbiology, 2024).
≈ marks a conversion by molar mass, not a printed value. Read-outs that look alike come from different tables or passages of the source.

Columns and labels:
[1] = Carboxyfluorescein leakage from LUVs
Experimental: Vesicle leakage assays were conducted using LUVs filled with carboxyfluorescein. Carboxyfluorescein solutions were made by suspending ~50 mM carboxyfluorescein in H2O and adjusting the pH to ~7.2 using 10 M NaOH. The resulting solution was diluted with H2O to match the osmolarity of the outside buffer, which consisted of 10 mM Tris and 100 mM NaCl, at pH = 7.2. LUVs were prepared as described above. Non-enclosed carboxyfluorescein was removed using a Sephadex G50 column equilibrated in outside buffer. Measurements were conducted on a Cary Eclipse spectrophotometer at 20 °C under constant stirring by monitoring the fluorescence intensity at 515 nm (excitation at 492 nm, 5 nm slit width, 0.1 s averaging time). A total lipid concentration of 25 µM was used for all experiments. Fluorescence traces were normalized using the fluorescence baseline at the start as 0% and fluorescence after treatment with 0.1 vol% Triton-X100 as 100%.

S. simulans 22 [2] = assay: MIC assays under standard conditions; format: cell-based, Staphylococcus simulans
In short: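 Broth microdilution in cation-adjusted MHB, inoculum from OD600 0.5 TSB culture diluted 100-fold, 37 °C with shaking. Streptococci: 5% lysed horse blood, 5% CO2, MIC read visually at 20–24 h; S. simulans read at 16–20 h.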

[3] = ITC of bivalent cation binding to plectasin in solution; settings: mean of duplicate, read-out: Kd, Ca^2+ binding to plectasin (ITC)
S. simulans 22 [4] = format: cell-based, Staphylococcus simulans; settings: for MIC: cation-depleted MHB + 0.5 mM MgCl2 + 10 µM ZnSO4
Experimental: Cation-depleted MHB was prepared as previously described[18] and supplemented with MgCl2 (0.5 mM) and ZnSO4 (10 µM). Plectasin was serially diluted twofold over a 96-well polypropylene plate. Serial dilutions of Ca^2+ in calcium-depleted medium were subsequently added to the wells containing the plectasin dilution series, followed by addition of bacterial suspensions. MICs were determined by visual inspection after 16–20 h (Staphylococcus). The effect of reduced Ca^2+ levels on S. simulans growth in the absence of plectasin was assessed by monitoring growth at 37 °C by OD600 over 18 h (Supplementary Fig. 4).

With CC[C@H](C)[C@@H]1NC(=O)[C@H](CO)NC(=O)[C@H](CCCCN)NC(=O)[C@@H]2CSSC[C@@H](C(=O)N[C@@H](Cc3ccc(O)cc3)C(=O)O)NC(=O)[C@H](CCCCN)NC(=O)[C@@H]3CSSC[C@H](NC(=O)[C@H](CCC(N)=O)NC(=O)[C@H](CCSC)NC(=O)[C@H](CC(=O)O)NC(=O)[C@H](CC(=O)O)NC(=O)[C@H](CCC(=O)O)NC(=O)[C@H](CC(=O)O)NC(=O)[C@H](Cc4c[nH]c5ccccc45)NC(=O)[C@@H]4CCCN4C(=O)CNC(=O)[C@H](CC(N)=O)NC(=O)[C@@H](NC(=O)CNC(=O)[C@H](Cc4ccccc4)NC(=O)CN)CSSC[C@H](NC(=O)[C@H](Cc4ccc(O)cc4)NC(=O)CNC(=O)CNC(=O)[C@H](CCCCN)NC(=O)[C@H](Cc4ccc(O)cc4)NC(=O)CNC(=O)[C@H](CCCCN)NC1=O)C(=O)N[C@@H](C)C(=O)N[C@@H](CCCCN)C(=O)NCC(=O)NCC(=O)N[C@@H](Cc1ccccc1)C(=O)N[C@@H](C(C)C)C(=O)N3)C(=O)N[C@@H](Cc1c[nH]cn1)C(=O)N[C@@H](CC(N)=O)C(=O)N[C@@H](Cc1c[nH]cn1)C(=O)N2 [Plectasin wt] the “carboxyfluorescein leakage (in words)” value ([1]; DOPC Lipid II vesicles, in the presence of calcium) was “efficiently permeabilized”, the “carboxyfluorescein leakage (in words)” value ([1]; phospholipids native to gram-positive bacteria included in the membrane, with calcium) was “virtually no leakage” and the “Minimum inhibitory concentration, S. simulans” value (S. simulans 22 [2]; Supplementary Table 1, cation-adjusted MHB, 37 °C, 16–20 h) was 0,78 μg/mL. For the same compound, the “MIC expressed as plectasin concentration” value (S. simulans 22 [2]; corresponding to 0.78 µg ml^−1) was 0.177 µM (≈ 0.779 µg/mL), the Kd [3] was 159 ± 69 nM and the “improvement of antimicrobial activity with increasing Ca^2+ concentration” value (S. simulans 22 [4]; Ca^2+ variable assay) was 4-8 fold. It also gave an MIC (S. simulans 22 [4]; Calcium 0 mM) of 12.5 µg/mL, an MIC (S. simulans 22 [4]; Calcium 0.31 mM) of 1.56 µg/mL and an MIC (S. simulans 22 [4]; Calcium 0.5 mM) of 1.56 µg/mL. For the same compound, the MIC (S. simulans 22 [4]; Calcium 0.63 mM) was 1.56 µg/mL, the MIC (S. simulans 22 [4]; Calcium 1.25 mM) was 1.56 to 3.13 µg/mL and the MIC (S. simulans 22 [4]; Calcium 2.5 mM) was 3.13 µg/mL.
